Assay results taken from patent publication US20210275657A1, “NEOANTIGENS AND USES THEREOF” (BioNTech US Inc., priority 2018, published 2021).
Like-named read-outs stand apart in the source and are kept apart here. Where no end group is shown, it is not given here.

Conditions: for solubility: without DMSO, after 6 hours; for solubility in 5 mM SS: 5 mM SS (higher SS concentration) in D5W; for Solubility in […] SS in D5W w/o DMSO / Solubility in Poly ICLC + […] SS in D5W w/o DMSO / Solubility in Poly ICLC + 5 mM SS in D5W w/o DMSO: no DMSO; for Solubility in […] SS in D5W w/o DMSO / Solubility in […] SS in D5W w/ 4% DMSO / Solubility in 0.5 mM SS in D5W w/ 4% DMSO: no polyICLC; for Solubility in […] SS in D5W w/ 4% DMSO: […] sodium succinate in D5W; for Solubility in 0.5 mM SS in D5W w/ 4% DMSO: 0.5 mM sodium succinate in D5W

Row | Sequence | solubility (0.4 mg/mL in […] SS) | solubility in 5 mM SS | Solubility in […] SS in D5W w/o DMSO | Solubility in […] SS in D5W w/ 4% DMSO (4% DMSO) | Solubility in Poly ICLC + […] SS in D5W w/o DMSO (with polyICLC) | Solubility in Poly ICLC + […] SS in D5W w/ 4% DMSO (with polyICLC, 4% DMSO) | Solubility in 0.5 mM SS in D5W w/ 4% DMSO (4% DMSO) | further results
1 | FLKAESKIMFATLQRS [Peptide L11f] | soluble | not soluble | Yes | Yes | Yes | – | – | solubility in low SS (lower SS concentration ([…] SS/D5W)): soluble
2 | FLKAESKIMFATLQRSSLWCL [Peptide 11] | – | – | – | – | – | No | – | –
3 | GPPARVPAVPFDLHFCRSSIMKPKRD [Peptide 8] | – | – | Yes | Yes | Yes | Yes | Yes | Solubility in Poly ICLC + 0.5 mM SS in D5W w/ 4% DMSO (with polyICLC, 0.5 mM SS in D5W, 4% DMSO): Yes; Solubility in Poly ICLC + 5 mM SS in D5W w/o DMSO (with polyICLC): Yes
4 | GPPARVPAVPFDLHFCRSSIMKPKRD [Peptide L8] | soluble | soluble | – | – | – | – | – | solubility (5 mM SS): soluble
5 | KAESKIMFATLQRSSLWCL [Peptide 11d] | – | – | Yes | Yes | Yes | – | Yes | –
6 | KAESKIMFATLQRSSLWCL [Peptide L11d] | soluble | – | – | – | – | – | – | –
7 | KPKRDGYMFLKAESKI [Peptide L10c] | soluble | soluble | Yes | Yes | Yes | – | – | solubility (5 mM SS): soluble; Solubility in Poly ICLC + 5 mM SS in D5W w/ 4% DMSO (with polyICLC, 4% DMSO): Yes; Solubility in Poly ICLC + 5 mM SS in D5W w/o DMSO (with polyICLC): Yes
8 | KPKRDGYMFLKAESKIMFAT [Peptide 10b] | – | – | – | Yes | – | No | Yes | –
9 | KPKRDGYMFLKAESKIMFATLQR [Peptide 10] | – | – | – | Yes | – | No | – | Solubility in Poly ICLC + 5 mM SS in D5W w/ 4% DMSO (with polyICLC, 4% DMSO): No
10 | LHFCRSSIMKPKRDGYMFLKAESKI [Peptide 9] | – | – | Yes | Yes | – | Yes | Yes | Solubility in Poly ICLC + 5 mM SS in D5W w/o DMSO (with polyICLC): Yes
11 | LHFCRSSIMKPKRDGYMFLKAESKI [Peptide L9] | soluble | soluble | – | – | – | – | – | solubility (5 mM SS): soluble
12 | YMFLKAESKIMFATLQRSS [Peptide 11c] | – | – | – | Yes | – | No | Yes | –
